Consider four molecules from the supplement of paper PMC11061612.

Test in all cases: combination Emax (second highest fraction inhibited in the dose matrix, 72 h); higher = more inhibition; extreme values may be limits of the assay
For assay [1], the system named is HT-1080 (Other Solid Carcinomas). The method in brief:
(§1)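 Cell lines in DMEM/F12 or RPMI with 10% FBS were plated in 1536-well plates, held 24 hours at 37°C, 5% CO2, then given two-drug dose matrices for 72 hours (DMSO typically 0.2%). Viability was read by CellTiter-Glo 2.0 luminescence and scaled as inhibition from 0 (vehicle wells) to 1 (blank wells). Combination Emax is the second-highest inhibition in the matrix; Bliss excess is observed combination effect minus expected EA + EB − EA·EB, EA and EB being single-agent effects.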

The test system of assay [2] is MONO-MAC-6 (Acute Myeloid Leukemia). The method in brief: as §1
Assay [3] concerns NMC-G1 (Low Grade Glioma). The method in brief: as §1
In assay [4] the test system is MOLP-8 (Plasma Cell Myeloma). The method in brief: as §1
Assay [5] relates to BxPC-3 (Pancreatic Carcinoma). The method in brief: as §1
Assay [6] concerns Raji (Burkitt's Lymphoma). The method in brief: as §1
The test system of assay [7] is SK-N-SH (Neuroblastoma). The method in brief: as §1
The subject of assay [8] is OAW-28 (Ovarian Carcinoma). The method in brief:
as §1

In assay [9] the test system is PA-TU-8988T (Pancreatic Carcinoma). The method in brief: as §1
Assay [10] concerns TUR (Acute Myeloid Leukemia). The method in brief: as §1
Assay [11] deals with MS-1 (Small Cell Lung Carcinoma). The method in brief:
as §1

The test system of assay [12] is P32-ISH (Burkitt's Lymphoma). The method in brief: as §1
Assay [13] has as its system MDA-MB-415 (Breast Carcinoma). The method in brief:
as §1

Assay [14] concerns SNU-407 (Colorectal Carcinoma). The method in brief: as §1
Assay [15] relates to NCI-H226 (Mesothelioma). The method in brief:
as §1

Assay [16] concerns SNU-C2B (Colorectal Carcinoma). The method in brief:
as §1

In assay [17] the test system is KALS-1 (Glioblastoma). The method in brief:
as §1

In assay [18] the test system is ZR-75-30 (Breast Carcinoma). The method in brief:
as §1

Assay [19] deals with NCI-H3118 (Head and Neck Carcinoma). The method in brief: as §1
The test system of assay [20] is NCI-H1963 (Small Cell Lung Carcinoma). The method in brief: as §1

As to `CC1(C)CCC(CN2CCN(c3ccc(C(=O)NS(=O)(=O)c4ccc(NCC5CCOCC5)c([N+](=O)[O-])c4)c(Oc4cnc5[nH]ccc5c4)c3)CC2)=C(c2ccc(Cl)cc2)C1` [Venetoclax] + C[C@@H]1COCCN1C2=NC(=NC(=C2)C3(CC3)[S@](=N)(=O)C)C4=C5C=CNC5=NC=C4 [AZD6738] (first compound max 1 µM, 7x7, partner max 10 µM), the “combination Emax” value in assay [1] was found to be 0.425; in assay [2], 0.985; in assay [3], 0.461; in assay [4] it was 0.75; in [5] it was 0.389; in assay [6], 0.733. Also, the “combination Emax” value turned out to be 0.915 in [7]; 0.472 in assay [8]; 0.345 in assay [9]; 0.963 in [10]; 0.702 in assay [11]; 0.933 in assay [12]. The “combination Emax” value in [13] came out at 0.509; in assay [14], 0.77; in assay [15], 0.243; in assay [16], 0.592; in assay [17], 0.83; in assay [18], 0.191. Further, the “combination Emax” value in [19] was 0.568; in [20], 0.985.
As to `CC1(C)CCC(CN2CCN(c3ccc(C(=O)NS(=O)(=O)c4ccc(NCC5CCOCC5)c([N+](=O)[O-])c4)c(Oc4cnc5[nH]ccc5c4)c3)CC2)=C(c2ccc(Cl)cc2)C1` [Venetoclax] + C[C@@H](Nc1cc(F)cc(F)c1)c1cc(C(=O)N(C)C)cc2c(=O)cc(N3CCOCC3)oc12 [AZD8186] (first compound max 1 µM, 7x7, partner max 3 µM), the “combination Emax” value in [1] was found to be 0.164; in assay [2] it was 0.808; in assay [3], 0.171; in assay [4] it was 0.455; in [5], 0.245; in assay [6], 0.172. Moreover, the “combination Emax” value in assay [7] amounted to 0.403; in assay [8] it was 0.331; in assay [9] it was 0.257; in assay [10], 0.209; in assay [11] it was 0.32; in [12], 0.341. Moreover, the “combination Emax” value stood at 0.663 in assay [13]; 0.142 in assay [14]; 0.0928 in assay [15]; 0.125 in assay [16]; 0.741 in [17]; 0.24 in assay [18]. For the same molecule, the “combination Emax” value was 0.0963 in assay [19] and 0.758 in [20].
As to `CC1(C)CCC(CN2CCN(c3ccc(C(=O)NS(=O)(=O)c4ccc(NCC5CCOCC5)c([N+](=O)[O-])c4)c(Oc4cnc5[nH]ccc5c4)c3)CC2)=C(c2ccc(Cl)cc2)C1` [Venetoclax] + Cc1cc2ncnn2cc1Nc1ncc2c(n1)n(C1CCOCC1)c(=O)n2C [AZD7648] (first compound max 1 µM, 7x7, partner max 10 µM), the “combination Emax” value worked out at 0.109 in assay [1]; 0.436 in assay [2]; 0.192 in [3]; 0.273 in assay [4]; 0.283 in assay [5]; 0.152 in [6]. In addition, the “combination Emax” value in assay [7] amounted to 0.543; in [8], 0.152; in assay [9] it was 0.238; in assay [10], 0.102; in assay [11], 0.445; in assay [12], 0.0629. Moreover, the “combination Emax” value in [13] was 0.342; in [14], 0.373; in assay [15], 0.171; in assay [16] it was 0.26; in assay [17], 0.693; in assay [18] it was 0.123. For the same molecule, the “combination Emax” value in assay [19] was determined as 0.137; in assay [20], 0.744.
In the case of `CC1(C)CCC(CN2CCN(c3ccc(C(=O)NS(=O)(=O)c4ccc(NCC5CCOCC5)c([N+](=O)[O-])c4)c(Oc4cnc5[nH]ccc5c4)c3)CC2)=C(c2ccc(Cl)cc2)C1` [Venetoclax] + Cn1cnc2c(F)c(Nc3ccc(Br)cc3Cl)c(C(=O)NOCCO)cc21 [Selumetinib] (first compound max 1 µM, 7x7, partner max 3 µM), the “combination Emax” value is 0.316 in assay [1]; 0.357 in assay [2]; 0.175 in [3]; 0.186 in [4]; 0.323 in assay [5]; 0.0995 in assay [6]. Further, the “combination Emax” value in assay [7] turned out to be 0.553; in [8], 0.284; in [9] it was 0.272; in [10] it was 0.179; in assay [11], 0.396; in [12], 0.239. Further, the “combination Emax” value was found to be 0.176 in assay [13]; 0.504 in [14]; 0.0891 in assay [15]; 0.27 in assay [16]; 0.578 in assay [17]; 0.159 in assay [18]. The results for the “combination Emax” value in assay [19] and in assay [20] were 0.294 and 0.76, respectively.
